Measured values reported in US11178870B2 (priority 2017, dated 2021).
Like-named read-outs stand apart in the source and are kept apart here.

Legend:
[1] = test system: Magnaporthe grisea; test: whole plant or invertebrate; assay type: in vivo; conditions: Pyricularia oryzae, in Oryza sativa, read-out: control value, Test A (blast on rice)
[2] = test system: Botrytis cinerea; test: Test Example B: Gray mold on tomato; assay type: in vivo; conditions: Table 7, Test B, read-out: control value, Test B (gray mold on tomato)
[3] = test system: Alternaia brassicicola; test: Test Example C: Alternaria sooty spot on cabbage; assay type: in vivo; conditions: Brassica oleracea; Table 7, Test C; read-out: control value, Test C (Alternaria sooty spot on cabbage)
[4] = test system: Blumeria graminis f. sp. hordei; test: Test Example D: Powdery mildew on barley; assay type: in vivo; conditions: Table 7, Test D, read-out: control value, Test D (powdery mildew on barley)
[5] = test system: Puccinia recondita; test: Test Example E: Brown rust on wheat; assay type: in vivo; conditions: Table 7, Test E, read-out: control value, Test E (brown rust on wheat)
[6] = test system: Phytophthora infestans; test: whole plant or invertebrate; assay type: in vivo; conditions: in Solanum lycopersicum, read-out: control value, Test F (late blight on tomato)
[7] = test system: Plasmopara viticola; test: Test Example G: Downy mildew on vine; assay type: in vivo; conditions: 250 ppm sprayed (2.5 ml/pot) before inoculation, assessed 7 to 10 days after inoculation, read-out: control value, Test G (downy mildew on vine)
[8] = test system: Colletotrichum orbiculare; test: whole plant or invertebrate; conditions: in Cucumis sativus, read-out: control value, Test H (anthracnose on cucumber)
Description: Seeds of a test plant (cucumber variety: Sagami Hanjiro) were planted and cultivated until the first leaf appeared. In the test, the compounds of the present invention were dissolved into a dimethyl sulfoxide-methanol mixture solution (volume ratio: 9/1), and the resultant solutions were diluted with well water to a concentration of 250 ppm. The thus-obtained dilutions were sprayed to the test plant (2.5 ml/pot). After the dilutions dried, a conidial suspension (2-4×10^5 conidia/ml) of Colletotrichum orbiculare was inoculated to the plant by spraying. After the inoculation, the plant was kept in a mist chamber at room temperature of 20 to 23° C. for about 24 hours to promote the onset of disease. The disease development was investigated 6 to 10 days after the inoculation, and the effectiveness of the dilutions was evaluated.
Disease development in Test Example described above was evaluated in increments of 0.05 by setting 0 as no incidence of disease and 3 as disease development in a plant of untreated group. In addition, control values were calculated using the following equation based on disease development.
Control value=100 {1−(n/3)}
n=Disease development of each treated groups

Compound	pest or weed control at 250 µg/mL [1] [%]	pest or weed control at 250 µg/mL [2] [%]	pest or weed control at 250 µg/mL [3] [%]	pest or weed control at 250 µg/mL [4] [%]	pest or weed control at 250 µg/mL [5] [%]	pest or weed control at 250 µg/mL [6] [%]	pest or weed control at 250 ppm [7] [%]	pest or weed control at 250 ppm [8] [%]	pest or weed control at 250 µg/mL ([2]; in Solanum lycopersicum) [%]	pest or weed control at 250 µg/mL ([4]; in Hordeum vulgare) [%]	pest or weed control at 250 µg/mL ([5]; in Triticum aestivum) [%]
C#Cc1cc(-n2cc(Cl)cn2)c(-c2c(F)cc(F)cc2F)n(CC)c1=O [compound 223, 5-(4-chloro-1H-pyrazol-1-yl)-1-ethyl-3-ethynyl-6-(2,4,6-trifluorophenyl)pyridin-2(1H)-one]	> 50	< 50	> 50	< 50	< 50	< 50	> 50	< 50	–	–	–
CCn1c(-c2c(F)cc(F)cc2F)c(-n2cc(Cl)cn2)cc(C(F)F)c1=O [compound 266, 5-(4-chloro-H-pyrazol-1-yl)-3-(difluoromethyl)-1-ethyl-6-(2,4,6-trifluorophenyl)pyridin-2(1H)-one]	> 50	> 50	> 50	> 50	> 50	< 50	> 50	> 50	–	–	–
CCn1c(-c2c(F)cc(O)cc2F)c(-n2cc(Cl)cn2)cc(Cl)c1=O [compound 184, 3-chloro-5-(4-chloro-1H-pyrazol-1-yl)-6-(2,6-difluoro-4-hydroxyphenyl)-1-ethylpyridin-2(1H)-one]	< 50	> 50	> 50	< 50	> 50	< 50	> 50	> 50	–	–	–
CCn1c(-c2c(F)cc(F)cc2F)c(-n2cc(Cl)cn2)cc(C)c1=O [compound 206, 5-(4-chloro-1H-pyrazol-1-yl)-1-ethyl-3-methyl-6-(2,4,6-trifluoro-phenyl)pyridin-2(1H)-one]	> 50	> 50	> 50	> 50	> 50	< 50	< 50	> 50	–	–	–
CCn1c(-c2c(F)cc(OC(C)=O)cc2F)c(-n2cc(Cl)cn2)cc(Cl)c1=O [compound 205]	< 50	–	> 50	–	–	< 50	< 50	< 50	> 50	< 50	> 50
CCn1c(-c2c(F)cc(F)cc2F)c(-n2cc(Cl)cn2)cc(OC)c1=O [compound 225, 5-(4-chloro-1H-pyrazol-1-yl)-1-ethyl-3-methoxy-6-(2,4,6-trifluorophenyl)pyridin-2(1H)-one]	< 50	< 50	> 50	> 50	> 50	< 50	> 50	< 50	–	–	–
C#CCOc1cc(F)c(-c2c(-n3cc(Cl)cn3)cc(Cl)c(=O)n2CC)c(F)c1 [compound 201, 3-chloro-5-(4-chloro-1H-pyrazol-1-yl)-6-(2,6-difluoro-4-(propargyloxy)phenyl)-1-ethyl pyridin-2(1H)-one]	> 50	> 50	> 50	> 50	> 50	< 50	< 50	> 50	–	–	–
CCn1c(-c2c(F)cc(F)cc2F)c(-n2cc(Cl)cn2)cc(C=O)c1=O [compound 265, 5-(4-chloro-1H-pyrazol-1-yl)-1-ethyl-2-oxo-6-(2,4,6-trifluorophenyl)-1,2-dihydropyridin-3-carboaldehyde]	< 50	< 50	> 50	> 50	> 50	< 50	< 50	< 50	–	–	–
CCn1c(-c2ccc(F)cc2F)c(-n2cc(C)cn2)cc(Br)c1=O [compound 226, 3-bromo-6-(2,4-difluorophenyl)-1-ethyl-5-(4-methyl-1H-pyrazol-1-yl)pyridin-2(1H)-one]	> 50	> 50	> 50	> 50	> 50	< 50	> 50	> 50	–	–	–
CCn1c(-c2ccc(F)cc2F)c(-n2ncc(C)c2Cl)cc(Br)c1=O [compound 228, 3-bromo-5-(5-chloro-4-methyl-1H-pyrazol-1-yl)-6-(2,4-difluoro-phenyl)-1-ethylpyridin-2(1H)-one]	> 50	> 50	> 50	> 50	> 50	< 50	< 50	> 50	–	–	–
CCn1c(-c2c(F)cc(OCCOC)cc2F)c(-n2cc(Cl)cn2)cc(Cl)c1=O [compound 204, 3-chloro-5-(4-chloro-1H-pyrazol-1-yl)-6-(2,6-difluoro-4-(2-methoxyethoxy)phenyl)-1-ethylpyridin-2(1H)-one]	< 50	> 50	> 50	< 50	< 50	< 50	< 50	> 50	–	–	–
C=CCOc1cc(F)c(-c2c(-n3cc(Cl)cn3)cc(Cl)c(=O)n2CC)c(F)c1 [compound 202, 6-(4-(allyloxy)-2,6-difluorophenyl)-3-chloro-5-(4-chloro-1H-pyrazol-1-yl)-1-ethylpyridin-2(1H)-one]	> 50	> 50	> 50	> 50	> 50	< 50	< 50	> 50	–	–	–
